{
  "source": "patent US7901893B2",
  "about": "“NPC1L1 (NPC3) and methods of identifying ligands thereof” (Merck Sharp & Dohme Corp., priority 2004, dated 2011)",
  "key": {"[1]": {"test_system": "brush border membranes from NPC1L1 knockout (−/−) mice", "assay": "Binding assay with brush border membranes from NPC1L1 deficient mice", "design": "species or system mouse", "description": "Brush border membranes vesicles were prepared from intestinal tissues of wild type and NPC1L1 knockout (−/−) mice. 15, 30 and 60 μg protein/assay of brush border membranes vesicles were incubated with 4 nM ^35S-2 in buffer A for 3 hours at 37° C. in the presence and absence of 100 μM EZE-glucuronide.\nFor FIG. 14A, enterocyte brush border membranes were prepared from NPC1L1 deficient male mice and same sex wild-type littermates, and tested for binding of 1. […] Membranes from wild type mice are on the left and from NPC1L1 deficient mice on the right."}, "[2]": {"target": "T1, CHO cells expressing SR-B1 (Mus musculus, UniProt Q61009)", "T1 construct": "expressed in transfected cells; host or cells: CHO cells", "T1 sequence (Q61009 1-509)": "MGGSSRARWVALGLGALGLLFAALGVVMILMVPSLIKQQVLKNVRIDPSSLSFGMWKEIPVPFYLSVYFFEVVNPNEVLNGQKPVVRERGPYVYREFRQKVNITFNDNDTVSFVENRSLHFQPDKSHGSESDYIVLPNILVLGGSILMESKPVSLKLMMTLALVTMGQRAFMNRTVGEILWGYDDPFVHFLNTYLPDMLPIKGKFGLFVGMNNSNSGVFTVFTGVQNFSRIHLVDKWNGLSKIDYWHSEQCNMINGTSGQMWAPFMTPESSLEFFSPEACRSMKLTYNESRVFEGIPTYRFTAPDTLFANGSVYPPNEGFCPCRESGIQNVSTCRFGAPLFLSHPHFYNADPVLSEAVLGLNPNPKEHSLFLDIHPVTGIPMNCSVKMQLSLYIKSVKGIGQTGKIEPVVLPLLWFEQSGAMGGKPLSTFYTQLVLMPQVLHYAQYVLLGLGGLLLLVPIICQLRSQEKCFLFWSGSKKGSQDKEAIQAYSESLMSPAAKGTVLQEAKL", "assay": "Cholesterol uptake assay (Example 4)", "type": "cell-based", "conditions": "10 μM ezetimibe", "description": "CHO cells expressing either SR-B1 or three different clones of rat NPC1L1 or one clone of mouse NPC1L1 were starved overnight in cholesterol free media then dosed with [3H]-cholesterol in a mixed synthetic micelle emulsion for 4 min, 8 min, 12 min or 24 m in the absence or presence of 10 µM ezetimibe. The cells were harvested and the lipids were organically extracted. The extracted lipids were spotted on thin-layer chromatography (TLC) plates and resolved within an organic vapor phase. The free cholesterol bands for each assay were isolated and counted in a scintillation counter."}, "[3]": {"test_system": "CHO background (no transfection)", "assay": "Effect of ezetimibe on cholesterol uptake, CHO background", "type": "cell-based, chinese hamster", "conditions": "EZ (10 μM), CHO Control", "description": "(§1) The effect of ezetimibe on the ability of CHO cells stably transfected with mouse or rat NPC1L1 or mouse SR-B1 to take up ^3H-labeled cholesterol was evaluated in pulse-chase experiments. One cDNA clone of mouse NPC1L1 (C7) and three clones of rat NPC1L1 (C7, C17 and C21) were evaluated. The ability of CHO cells stably transfected with mouse SR-B1, mouse NPC1L1 and rat NPC1L1 to take up labeled cholesterol, in the absence of ezetimibe, was also evaluated in the pulse-chase experiments. Data generated in these experiments are set forth, below, in Tables 4 and 5. Additionally, the quantity of total cholesterol taken up by transfected and untransfected CHO cells in the presence of four different unlabeled cholesterol concentrations was also evaluated.\n(§2) Starve. The maintenance media (F12 HAMS, 1% Pen/Strep, 10% FCS) was removed and the cells were rinsed with serum-free HAMS media. The serum-free media was then replaced with 1 mL “starve” media (F12 HAMS, Pen/Strep, 5% lipoprotein deficient serum (LPDS). The cells were then starved overnight.\n(§3) Pre-Incubation/pre-dose. Media was removed from all plates and replaced with fresh starve media and preincubated for 30 minutes. Half of the wells received media containing ezetimibe (stock soln in EtOH; final conc.=10 μM).\n(§4) ^3H-Cholesterol Pulse. The following was added directly to each well: • 0.5 μCi ^3H-cholesterol (˜1.1×10^6 dpm/well) in 50 μl of a mixed bile salt micelle • 4.8 mM sodium taurocholate (2.581 mg/mL) • 0.6 mM sodium oleate (0.183 mg/mL) • 0.25 mM cholesterol (0.1 mg/mL) • Dispersed in “starve” media by ultrasonic vibration • Final media cholesterol concentration=5 μg/mL\n(§5) Labeled cholesterol pulse time points were 4, 12, 24 minutes and 4 hours. Triplicate wells were prepared for each treatment.\n(§6) Wash. At designated times, media was aspirated and cells were washed once with Hobbs Buffer A (50 mM Tris, 0.9% NaCl, 0.2% bovine serum albumin (BSA), pH 7.4) and once with Hobbs Buffer B (50 mM Tris, 0.9% NaCl, pH 7.4 (no BSA)) at 37° C.\n(§7) A. 4, 12, 24 minute time points: Cells were digested overnight with 0.2N NaOH, 2 mL/well, room temperature. One 1.5 mL aliquot was removed from each well, neutralized & counted for radioactivity by scintillation counting.\n(§8) B. 4 hour time point: The digested cells were analyzed by thin-layer chromatography to determine the content of cholesterol ester in the cells.\n(§9) Extracts were spotted onto TLC plates and run for 30 minutes in 2 ml hexane:isopropanol (3:2) mobile phase for 30 minutes, followed by a second run in 1 ml hexane:isopropanol (3:2) mobile phase for 15 minutes.\n(§10) C. Protein determination of cell extracts. Plates containing a sample of the cell extracts were placed on orbital shaker at 120 rpm for indicated times and then extracts are pooled into 12×75 tubes. Plates were dried and NaOH (2 ml/well) added. The protein content of the samples were then determined. Two additional 50 μl aliquots from all wells were assayed for total protein by the Pierce micro BCA method. The quantity of labeled cholesterol observed in the cells was normalized to the quantity of protein in the cells."}, "mouse SR-B1": {"target": "T2, mouse SR-B1 (Mus musculus, UniProt Q61009)", "T2 construct": "expressed in transfected cells", "T2 sequence (Q61009 1-509)": "T1 sequence (Q61009 1-509)", "assay": "Effect of ezetimibe on cholesterol uptake, SR-B1 transfected CHO cells", "type": "cell-based", "conditions": "EZ (10 μM), SR-BI", "description": "as §1, §2, §3, §4, §5, §6, §7, §8, §9, §10"}, "cholesterol absorption": {"test_system": "cholesterol absorption", "conditions": "mouse; cited from earlier work"}},
  "note": "“Also recorded” adds a separate entry of the source.",
  "data": [
    {"compound": "CS(=O)(=O)NCC#Cc1ccc(N2C(=O)[C@H](CC[C@H](O)c3ccc(F)cc3)[C@H]2c2ccc(O[C@@H]3O[C@H](C(=O)O)[C@@H](O)[C@H](O)[C@H]3O)cc2)cc1", "note": "[Compound 2, 4-[(2S,3R)-3-[(3S)-3 (4-fluorophenyl)-3-hydroxypropyl]-1-(4-{3-[(methylsulfonyl)amino]prop-1-yn-1-yl}phenyl)-4-oxoazetidin-2-yl]phenyl β-D-glucopyranosiduronic acid]", "values": [
      {"measurement": "binding to membranes from NPC1L1 deficient mice", "setting": "[1]; 4 nM ^35S-2", "result": "no detectable binding"}
    ]},
    {"compound": "O=C(O)[C@H]1O[C@@H](Oc2ccc([C@@H]3[C@@H](CC[C@H](O)c4ccc(F)cc4)C(=O)N3c3ccc(F)cc3)cc2)[C@H](O)[C@@H](O)[C@@H]1O", "note": "[Compound 1, Ezetimibe glucuronide]", "values": [
      {"measurement": "specific binding to membranes from NPC1L1 deficient mice", "setting": "[1]; 500 nM 1, 0.03% taurocholate, 0.05% digitonin", "result": "no detectable specific binding affinity; also recorded: virtually undetectable"}
    ]},
    {"compound": "O=C1[C@H](CC[C@H](O)c2ccc(F)cc2)[C@@H](c2ccc(O)cc2)N1c1ccc(F)cc1", "note": "[ezetimibe]", "values": [
      {"measurement": "[^3H]-cholesterol uptake", "setting": "[2]", "result": "inhibited"},
      {"measurement": "Cholesteryl Ester, dpm ± sem", "setting": "[3]; 4 Hour Pulse", "result": "208 ± 9", "unit": "dpm"},
      {"measurement": "Cholesteryl Ester, dpm/mg protein ± sem", "setting": "[3]; 4 Hour Pulse", "result": "1902 ± 87", "unit": "dpm/mg protein"},
      {"measurement": "Free Cholesterol, dpm ± sem", "setting": "[3]; 4 Hour Pulse", "result": "56792 ± 568", "unit": "dpm"},
      {"measurement": "Free Cholesterol, dpm/mg protein ± sem", "setting": "[3]; 4 Hour Pulse", "result": "519607 ± 16203", "unit": "dpm/mg protein"},
      {"measurement": "Total Cholesterol, dpm ± sem", "setting": "[3]; 4 Min Pulse", "result": "3222 ± 26", "unit": "dpm"},
      {"measurement": "Total Cholesterol, dpm/mg protein ± sem", "setting": "[3]; 4 Min Pulse", "result": "31881 ± 483", "unit": "dpm/mg protein"},
      {"measurement": "Total Cholesterol, dpm ± sem", "setting": "[3]; 12 Min Pulse", "result": "4532 ± 165", "unit": "dpm"},
      {"measurement": "Total Cholesterol, dpm/mg protein ± sem", "setting": "[3]; 12 Min Pulse", "result": "43391 ± 1197", "unit": "dpm/mg protein"},
      {"measurement": "Total Cholesterol, dpm ± sem", "setting": "[3]; 24 Min Pulse", "result": "6678 ± 215", "unit": "dpm"},
      {"measurement": "Total Cholesterol, dpm/mg protein ± sem", "setting": "[3]; 24 Min Pulse", "result": "61764 ± 2131", "unit": "dpm/mg protein"},
      {"measurement": "Cholesteryl Ester, dpm ± sem", "setting": "mouse SR-B1; 4 Hour Pulse", "result": "9305 ± 401", "unit": "dpm"},
      {"measurement": "Cholesteryl Ester, dpm/mg protein ± sem", "setting": "mouse SR-B1; 4 Hour Pulse", "result": "72782 ± 3181", "unit": "dpm/mg protein"},
      {"measurement": "Free Cholesterol, dpm ± sem", "setting": "mouse SR-B1; 4 Hour Pulse", "result": "194519 ± 474", "unit": "dpm"},
      {"measurement": "Free Cholesterol, dpm/mg protein ± sem", "setting": "mouse SR-B1; 4 Hour Pulse", "result": "1521341 ± 4185", "unit": "dpm/mg protein"},
      {"measurement": "Total Cholesterol, dpm ± sem", "setting": "mouse SR-B1; 4 Min Pulse", "result": "10968 ± 821", "unit": "dpm"},
      {"measurement": "Total Cholesterol, dpm/mg protein ± sem", "setting": "mouse SR-B1; 4 Min Pulse", "result": "92474 ± 2902", "unit": "dpm/mg protein"},
      {"measurement": "Total Cholesterol, dpm ± sem", "setting": "mouse SR-B1; 12 Min Pulse", "result": "12349 ± 298", "unit": "dpm"},
      {"measurement": "Total Cholesterol, dpm/mg protein ± sem", "setting": "mouse SR-B1; 12 Min Pulse", "result": "98956 ± 4447", "unit": "dpm/mg protein"},
      {"measurement": "Total Cholesterol, dpm ± sem", "setting": "mouse SR-B1; 24 Min Pulse", "result": "23558 ± 1310", "unit": "dpm"},
      {"measurement": "Total Cholesterol, dpm/mg protein ± sem", "setting": "mouse SR-B1; 24 Min Pulse", "result": "198725 ± 11713", "unit": "dpm/mg protein"},
      {"measurement": "potency (ED50) in vivo", "setting": "cholesterol absorption", "result": 0.5, "unit": "mpk"}
    ]}
  ]
}
